Species: Rattus norvegicus
Test: DrugMatrix - Regimen: Daily Repeat
Type: toxicity, organism-based, Sprague-Dawley
Set-up: regimen Daily Repeat, gender Male, age 6-8 weeks
Settings: in vivo, po, 50 mg/kg, route oral GAVAGE, dose level Low, […]; for ABSOLUTE BASOPHIL / ABSOLUTE EOSINOPHIL / ABSOLUTE LYMPHOCYTE / ABSOLUTE MONOCYTE / ABSOLUTE SEGMENTED NEUTROPHIL / BASOPHIL / EOSINOPHIL / ERYTHROCYTE COUNT / HEMATOCRIT / HEMOGLOBIN / LEUKOCYTE COUNT / LYMPHOCYTE / MEAN CORPUSCULAR HEMOGLOBIN / MEAN CORPUSCULAR HEMOGLOBIN CONCENTRATION / MEAN CORPUSCULAR VOLUME / MONOCYTE / NEUTROPHIL / NUCLEATED RED BLOOD CELLS / PLATELET COUNT: tissue Blood; for ALANINE AMINOTRANSFERASE / ALBUMIN / ALKALINE PHOSPHATASE / ASPARTATE AMINOTRANSFERASE / BLOOD UREA NITROGEN / CARBON DIOXIDE / CHLORIDE / CHOLESTEROL / CREATINE PHOSPHOKINASE / CREATININE / GLUCOSE / LACTATE DEHYDROGENASE / LIPASE / PHOSPHORUS / POTASSIUM / SODIUM / TOTAL BILIRUBIN / TOTAL PROTEIN / URIC ACID: tissue Plasma

What does the source list for `COC(=O)Nc1nc2ccc(Sc3ccccc3)cc2[nH]1` [FENBENDAZOLE]?
ABSOLUTE BASOPHIL (72 h, time 3 day): 0 CELLS/uL; ABSOLUTE EOSINOPHIL (72 h, time 3 day): 0 CELLS/uL; ABSOLUTE LYMPHOCYTE (72 h, time 3 day): 13096 CELLS/uL; ABSOLUTE MONOCYTE (72 h, time 3 day): 168.67 CELLS/uL; ABSOLUTE SEGMENTED NEUTROPHIL (72 h, time 3 day): 1268.67 CELLS/uL; BASOPHIL (72 h, time 3 day): 0%; EOSINOPHIL (72 h, time 3 day): 0%; ERYTHROCYTE COUNT (72 h, time 3 day): 5.64 x10E6/uL; HEMATOCRIT (72 h, time 3 day): 35.13%; HEMOGLOBIN (72 h, time 3 day): 13.37 G/DL; LEUKOCYTE COUNT (72 h, time 3 day): 14.53 x10E3/uL; LYMPHOCYTE (72 h, time 3 day): 90.33%; MEAN CORPUSCULAR HEMOGLOBIN (72 h, time 3 day): 23.7 pg; MEAN CORPUSCULAR HEMOGLOBIN CONCENTRATION (72 h, time 3 day): 38.07 G/DL; MEAN CORPUSCULAR VOLUME (72 h, time 3 day): 62.37 fL; MONOCYTE (72 h, time 3 day): 1%; NEUTROPHIL (72 h, time 3 day): 8.67%; NUCLEATED RED BLOOD CELLS (72 h, time 3 day): 0 /100WBC; PLATELET COUNT (72 h, time 3 day): 1087 x10E3/uL; ALANINE AMINOTRANSFERASE (72 h, time 3 day): 79 u/L; ALBUMIN (72 h, time 3 day): 4.07 G/DL; ALKALINE PHOSPHATASE (72 h, time 3 day): 536.67 u/L; ASPARTATE AMINOTRANSFERASE (72 h, time 3 day): 137.67 u/L; BLOOD UREA NITROGEN (72 h, time 3 day): 15 mg/dL; CARBON DIOXIDE (72 h, time 3 day): 27.33 mmol/L; CHLORIDE (72 h, time 3 day): 99.33 MEQ/L; CHOLESTEROL (72 h, time 3 day): 87.33 mg/dL; CREATINE PHOSPHOKINASE (72 h, time 3 day): 508.67 u/L; CREATININE (72 h, time 3 day): 0.16 mg/dL; GLUCOSE (72 h, time 3 day): 146.33 mg/dL; LACTATE DEHYDROGENASE (72 h, time 3 day): 359 u/L; LIPASE (72 h, time 3 day): 10.67 u/L; PHOSPHORUS (72 h, time 3 day): 13.07 mg/dL; POTASSIUM (72 h, time 3 day): 6.5 MEQ/L; SODIUM (72 h, time 3 day): 143.5 MEQ/L; TOTAL BILIRUBIN (72 h, time 3 day): 0.3 mg/dL; TOTAL PROTEIN (72 h, time 3 day): 5.6 G/DL; URIC ACID (72 h, time 3 day): 1.7 mg/dL; ABSOLUTE BASOPHIL (120 h, time 5 day): 0 CELLS/uL; ABSOLUTE EOSINOPHIL (120 h, time 5 day): 126 CELLS/uL; ABSOLUTE LYMPHOCYTE (120 h, time 5 day): 15732 CELLS/uL; ABSOLUTE MONOCYTE (120 h, time 5 day): 245.33 CELLS/uL; ABSOLUTE SEGMENTED NEUTROPHIL (120 h, time 5 day): 1830 CELLS/uL; BASOPHIL (120 h, time 5 day): 0%; EOSINOPHIL (120 h, time 5 day): 0.67%; ERYTHROCYTE COUNT (120 h, time 5 day): 6.25 x10E6/uL; HEMATOCRIT (120 h, time 5 day): 37.37%; HEMOGLOBIN (120 h, time 5 day): 14.73 G/DL; LEUKOCYTE COUNT (120 h, time 5 day): 17.93 x10E3/uL; LYMPHOCYTE (120 h, time 5 day): 88%; MEAN CORPUSCULAR HEMOGLOBIN (120 h, time 5 day): 23.57 pg; MEAN CORPUSCULAR HEMOGLOBIN CONCENTRATION (120 h, time 5 day): 39.43 G/DL; MEAN CORPUSCULAR VOLUME (120 h, time 5 day): 59.83 fL; MONOCYTE (120 h, time 5 day): 1.33%; NEUTROPHIL (120 h, time 5 day): 10%; NUCLEATED RED BLOOD CELLS (120 h, time 5 day): 0 /100WBC; PLATELET COUNT (120 h, time 5 day): 1051.67 x10E3/uL; ALANINE AMINOTRANSFERASE (120 h, time 5 day): 164.33 u/L; ALBUMIN (120 h, time 5 day): 4.1 G/DL; ALKALINE PHOSPHATASE (120 h, time 5 day): 601.67 u/L; ASPARTATE AMINOTRANSFERASE (120 h, time 5 day): 203.67 u/L; BLOOD UREA NITROGEN (120 h, time 5 day): 13.67 mg/dL; CARBON DIOXIDE (120 h, time 5 day): 26.33 mmol/L; CHLORIDE (120 h, time 5 day): 99.33 MEQ/L; CHOLESTEROL (120 h, time 5 day): 85.33 mg/dL; CREATINE PHOSPHOKINASE (120 h, time 5 day): 602.33 u/L; CREATININE (120 h, time 5 day): 0.19 mg/dL; GLUCOSE (120 h, time 5 day): 143.67 mg/dL; LACTATE DEHYDROGENASE (120 h, time 5 day): 615.33 u/L; LIPASE (120 h, time 5 day): 11 u/L; PHOSPHORUS (120 h, time 5 day): 11.27 mg/dL; POTASSIUM (120 h, time 5 day): 6.24 MEQ/L; SODIUM (120 h, time 5 day): 142.9 MEQ/L; TOTAL BILIRUBIN (120 h, time 5 day): 0.27 mg/dL; TOTAL PROTEIN (120 h, time 5 day): 5.6 G/DL; URIC ACID (120 h, time 5 day): 2.17 mg/dL

Reference: ChEMBL document CHEMBL3885881, “DrugMatrix”
